We go through 5 molecules from patent US9144595B2, “APLs for treating arthritis” (University of Tennessee Research Foundation, priority 2009, dated 2015).

The test system of data set [1] is murine models of oral tolerance. Description: Murine models of oral tolerance. As to conditions: mouse, in vivo. The source says:
A form of CII based therapy has been tried in patients with RA and juvenile RA by administering intact native chick or bovine CII to patients. Seven trials of treatment with oral CII have been reported including two of our own. […] Most patients in these studies also received NSAIDs which block oral tolerance and systemic tolerance. The use of NSAIDS might have been responsible for the mixed results of oral CII in RA. […] Furthermore, we have applied these crucial data in designing oral tolerance trials in humans. We can down regulate with oral CII, PBMC production of IFNγ to α1(II) in RA patients who take NSAIDS plus misoprostol and/or DMARDS and anti-TNFα therapies. Oral administration of low dose antigen generates regulatory T cells, which act in the respective microenvironment in a non-antigen specific manner by producing down-regulatory cytokines such as IL4, IL10 and TGFbeta, a Th2/Th3 cytokine pattern.

Data set [2] concerns patients with RA. As to conditions: cited from earlier work.
For data set [3], the system named is patients with recent onset of type 1 diabetes mellitus. The note with it: IFNγ and IL-5 ELISPOT, weeks 0-26; cited from earlier work.
The subject of data set [4] is Peyer's Patch cells of DR1 TCRtg+/+ mice. In words: Oral APL A12: IL-17 and IL-10 in cultures of Peyer's Patch cells of DR1 TCRtg+/+ mice. Format: in vivo, mouse.
The subject of data set [5] is splenocytes of DR1 transgenic mice. Description: Oral APL A12: IFNγ production by cultured splenocytes of DR1 transgenic mice. The data set is classed as in vivo, mouse.
The subject of data set [6] is DR1 Transgenic mice. Description: Effect of A12 on CIA in DR1 Transgenic mice (CII plus A12; intravenous A12 after CII-immunization). The data set is classed as in vivo, mouse. As to the method:
Assuming that CII263-270 was key to developing immunity to the intact CII molecule, a number of analog peptides where amino acids within this small segment were substituted with those found in the corresponding sites of nonarthritogenic type I collagen were prepared and tested. […] The APL A12 developed for this study has the following amino acid sequence: LGPKGQTGEBG[IAGNKGDQGPK]GEBGPA (SEQ ID NO: 3) where B=hydroxproline. The core determinant of human CII263-270 is bracketed. The underlined residues are those substituted to produce APL A12. The residues amino terminal and carboxy terminal to the core determinant is from the normal human CII sequence.

The mark [7] stands for this setting: mice gavaged with 50 μg CII263-270 9 times over 2 weeks, cells cultured with PBS.
The mark [8] stands for this setting: mice gavaged with 50 μg CII263-270, cells cultured with APL A12 50 μg/ml.
Where [9] appears, read: mice gavaged with 50 μg CII263-270, cells cultured with CII263-270 50 μg/ml.
[10] abbreviates: mice gavaged with PBS, cells cultured with CII263-270 50 μg/ml.

For etanercept, in data set [1], the oral tolerance induction result is “do not block oral tolerance induction”.

On to “[O]QKRAAYDQ[U]YGHAAFE (QKRAAYDQYGHAAFE; Synthetic peptide dnaJP1) [synthetic peptide derived from bacterial heat shock protein]”, for which, in data set [2] (CD3+ cells, oral, six months), the cytokine profile entry is listed as “switch in the cytokine profile from Th1 to Th2”. The tolerability entry in data set [2] (oral 0.25, 2.5 and 25 mg per day for six months) is “well tolerated and no significant side effects occurred”. In data set [2] (oral, six months), the worsening of arthritis result is “no worsening of arthritis”.

Regarding SHLVEALALVAGERG [NBI-6024], the “PBMC ELISPOT responses to B(9-23) epitope and NBI-6024” value in data set [3] is “induced, predominantly Th2 responses”.

Take “FKGEQGPK [CII263-270, reference compound]”: the “II-10 Levels in Peyer's Patch Cultures” value in data set [4] (setting [7]) is given as 15 pg/mL; in data set [4] (setting [8]), 35 pg/mL; in data set [4] (setting [9]), 15 pg/mL; in data set [4] (setting [10]) it was 45 pg/mL. The “IL-17 Levels in Peyer's Patch Cultures” value in data set [4] (setting [7]) was 11 pg/mL; in data set [4] (setting [8]) it was 62 pg/mL; in data set [4] (setting [9]), 256 pg/mL; in data set [4] (setting [10]), 30 pg/mL. For the same molecule, the “IFNγ Levels in Splenocyte Culture” value in data set [5] (mice gavaged with 50 μg CII263-270 8 times over 2 weeks, splenocytes cultured with PBS) stood at 68 ± 85 pg/mL; in data set [5] (mice gavaged with 50 μg CII263-270, splenocytes cultured with APL A12 50 μg/ml) it was 80 ± 52 pg/mL; in data set [5] (mice gavaged with 50 μg CII263-270, splenocytes cultured with CII263-270 50 μg/ml) it was 124 ± 84 pg/mL; in data set [5] (mice gavaged with PBS, splenocytes cultured with CII263-270 50 μg/ml) it was 280 ± 222 pg/mL.

B1: Ova: control antigen given intravenously in Table I (protein, UniProt P01012 2-386, looked up)
Ovalbumin: GSIGAASMEFCFDVFKELKVHHANENIFYCPIAIMSALAMVYLGAKDSTRTQINKVVRFDKLPGFGDSIEAQCGTSVNVHSSLRDILNQITKPNDVYSFSLASRLYAEERYPILPEYLQCVKELYRGGLEPINFQTAADQARELINSWVESQTNGIIRNVLQPSSVDSQTAMVLVNAIVFKGLWEKAFKDEDTQAMPFRVTEQESKPVQMMYQIGLFRVASMASEKMKILELPFASGTMSMLVLLPDEVSGLEQLESIINFEKLTEWTSSNVMEERKIKVYLPRMKMEEKYNLTSVLMAMGITDVFSSSANLSGISSAESLKISQAVHAAHAEINEAGREVVGSAEAGVDAASVSEEFRADHPFLFCIKHIATNAVLFFGRCVSP
Turning to B1, the “Antibodies to CII” value in data set [6] (1 mg total i.v.) is reported as 42 ± 10. Also, the Incidence in data set [6] (arthritis incidence, 1 mg total i.v. on days 10, 12, 14 after CII-immunization) was 7/10.
